Each block holds one molecule with its values, some of them ahead of it. The source made the active and inactive calls. The rule behind the calls is not given here.
Key:
PC-12 [1] = assay: Inhibition of KCl-induced membrane depolarization in rat PC12 cells assessed as inhibition of catecholamine secretion at 5 uM after 30 mins by liquid scintillation counting analysis; format: functional, cell-based
[2] = Inhibition of nicotinic cholinergic receptor in rat PC12 cells assessed as inhibition of nicotine-stimulated [3H]-norepinephrine release after 30 mins by liquid scintillation counting analysis; format: cell-based; conditions: PC-12
PC-12 [3] = assay: Inhibition of ATP-induced P2X receptor activation in rat PC12 cells assessed as inhibition of catecholamine secretion at 5 uM after 30 mins by liquid scintillation counting analysis; format: cell-based
PC-12 [4] = assay: Cytotoxicity against rat PC12 cells assessed as cell viability at 5 to 10 uM after 24 hrs by trypan blue exclusion assay relative to control; format: cell-based; conditions: pc-12, 24 h
PC-12 [5] = assay: Inhibition of BaCl2-induced potassium channel blockade in rat PC12 cells assessed as inhibition of catecholamine secretion at 5 uM after 30 mins by liquid scintillation counting analysis; format: functional, cell-based
PC-12 [6] = assay: Inhibition of nicotinic cholinergic receptor-mediated [3H]-norepinephrine release in rat PC12 cells after 30 mins by liquid scintillation counting analysis; format: cell-based
PC-12 [7] = assay: Noncompetitive inhibition of nicotinic cholinergic receptor in rat PC12 cells assessed as inhibition of 100 to 1000 uM nicotine-induced [3H]-norepinephrine release at 5 uM after 30 mins by liquid scintillation counting analysis; format: cell-based
PC-12 [8] = assay: Inhibition of ionomycin-mediated catecholamine secretion in rat PC12 cells at 5 uM after 30 mins by liquid scintillation counting analysis; format: functional, cell-based
[9] = (§1) Inhibition of nicotinic cholinergic receptor in rat PC12 cells assessed as inhibition of nicotine-stimulated 45Ca2+ uptake after 2 mins by liquid scintillation counting analysis; format: cell-based; conditions: PC-12, 2 min
PC-12 [10] = assay: as §1; format: cell-based
Mus musculus [11] = assay: Antihypertensive activity in BPH/2J mouse polygenic hypertensive model assessed as reduction in heart rate at 5 ug/g, ip measured for 24 hrs by telemetry; format: functional
Mus musculus [12] = assay: Toxicity in BPH/2J mouse polygenic hypertensive model assessed as reflex tachycardia at 5 ug/g, ip measured for 24 hrs by telemetry; format: organism-based; conditions: in vivo
Mus musculus [13] = assay: Antihypertensive activity in BPH/2J mouse polygenic hypertensive model assessed as reduction in systolic blood pressure at 5 ug/g, ip up to 60 mins by telemetry; format: functional, Artery
Mus musculus [14] = assay: Antihypertensive activity in BPH/2J mouse polygenic hypertensive model assessed as reduction in diastolic blood pressure at 5 ug/g, ip up to 60 mins by telemetry; format: functional, Artery

Compound: CNC(=O)c1cc(NC(=O)Nc2cccc(C3=NCCN3)c2)cc(NC(=O)Nc2cccc(C3=NCCN3)c2)c1
inhibition (PC-12 [1]): inactive
IC50 [2]: 1 µM
inhibition (PC-12 [3]): inactive
Activity (PC-12 [4]): Non-toxic
inhibition (PC-12 [5]): inactive
inhibition (PC-12 [6]): inactive
inhibition (PC-12 [7]): Active
inhibition (PC-12 [8]): inactive
IC50 [9]: 0.1 µM
inhibition (PC-12 [10]): Dose-dependent effect

Compound: C/N=C(\NC)c1ccc(NC(=O)Nc2ccc(C)c(NC(=O)Nc3ccc(/C(=N/C)NC)cc3)c2)cc1
IC50 [2]: 0.024 µM
IC50 [9]: 0.1 µM
inhibition (PC-12 [10]): Dose-dependent effect

Compound: C[N+](C)(C)CC[N+]1(C)Cc2c(Cl)c(Cl)c(Cl)c(Cl)c2C1
inhibition (PC-12 [7]): Active

Compound: C/N=C(\N)c1ccc(/N=C(\N)c2ccc(Cl)c(/C(N)=N/c3ccc(C(=N)NC)cc3)c2)cc1
IC50 [2]: 1.8 µM

Compound: CCN1CCCC(Nc2cc(C)nc(NC(=N)Nc3ccc(Cl)c(Cl)c3)n2)C1 (configuration not stated)
IC50 [2]: 1.1 µM

Compound: Cc1cc(NC(=O)NCc2ccc(N3C(N)=NC(N)=NC3(C)C)cc2)ccc1S(=O)(=O)F
IC50 [2]: 0.87 µM

Compound: Nc1nc(N)c2nc(CNc3ccc(C(=O)N[C@@H](CCC(=O)O)C(=O)O)cc3)cnc2n1 [AMINOPTERIN]
IC50 [2]: > 5 µM

Compound: Nc1ccc(CCCCc2nc(N)nc(N)c2-c2ccc(Cl)c(Cl)c2)cc1
IC50 [2]: 2.6 µM

Compound: CC1(C)N=C(N)N=C(N)N1c1ccc(CNC(=O)Nc2ccccc2)cc1
IC50 [2]: > 5 µM

Now from value to molecule, other results behind:

IC50 [2]: > 5 µM
Compound: Cc1ccnc(NS(=O)(=O)c2ccc(/N=N/c3cc(/N=N/c4ccccc4)c(N)nc3N)cc2)n1

IC50 [2]: > 5 µM
Compound: O=C(Nc1cc(C2=NCCN2)cc(C2=NCCN2)c1)Nc1cc(C2=NCCN2)cc(C2=NCCN2)c1

IC50 [2]: 2 µM
Compound: Nc1nc(N)c(/N=N/c2ccc(S(=O)(=O)Nc3ccccn3)cc2)cc1/N=N/c1ccccc1

IC50 [2]: 0.041 µM
IC50 [9]: 0.07 µM
Compound: C/N=C(\NC)c1ccc(NC(=O)Nc2cccc(NC(=O)Nc3ccc(/C(=N/C)NC)cc3)c2)cc1
inhibition (PC-12 [10]): Dose-dependent effect

IC50 [2]: 0.68 µM
Compound: CCN(CC)CC(O)CNC1=N/C(=N/C(=N)Nc2ccc(Cl)c(Cl)c2)N=C(C)C1 (configuration not stated)
inhibition (PC-12 [1]): inactive
inhibition (PC-12 [3]): inactive
Activity (PC-12 [4]): Non-toxic
inhibition (PC-12 [5]): inactive
inhibition (PC-12 [6]): inactive
inhibition (PC-12 [7]): Active
inhibition (PC-12 [8]): inactive

IC50 [2]: 1.7 µM
Compound: C/N=C(\NC)c1ccc(/N=C(\NC)c2ccc(/C(=N/c3ccc(/C(=N/C)NC)cc3)NC)cc2)cc1

IC50 [2]: 0.45 µM
Compound: CCN1CCC(CNc2cc(C)nc(NC(=N)Nc3ccc(Cl)c(Cl)c3)n2)C1 (configuration not stated)

IC50 [2]: 1.5 µM
Compound: Nc1nc(N)c(-c2ccc(Cl)cc2)c(CCc2ccc(NC(=O)CBr)cc2)n1

IC50 [2]: 0.017 µM
IC50 [9]: 0.09 µM
Compound: C/C(=N\NC(=N)N)c1cccc(NC(=S)Nc2cccc(/C(C)=N/NC(=N)N)c2)c1
Activity (Mus musculus [11]): 180 bpm
Activity (Mus musculus [12]): Non-toxic
Activity (Mus musculus [13]): 33 mmHg
Activity (Mus musculus [14]): 25 mmHg
inhibition (PC-12 [10]): Dose-dependent effect

IC50 [2]: 1.9 µM
Compound: CCN1CCC(CNc2cc(C)nc(NC(=N)Nc3cc(Cl)cc(Cl)c3)n2)C1 (configuration not stated)

IC50 [2]: 1.6 µM
Compound: CCN/C(=N\c1cccc(C2=NCCN2)c1)c1ccc(/C(=N/c2cccc(C3=NCCN3)c2)NCC)cc1

IC50 [2]: 1.4 µM
Compound: CNC(=O)c1ccc(NC(=O)Nc2cccc(C3=NCCN3)c2)cc1NC(=O)Nc1cccc(C2=NCCN2)c1

Reference: ChEMBL document CHEMBL2417387, “Development of a pharmacophore model for the catecholamine release-inhibitory peptide catestatin: virtual screening and functional testing identify novel small molecule therapeutics of hypertension” (Bioorg Med Chem, 2013)
